Measurements published in PubChem BioAssay AID2060897 (Molecular Pharmacology Branch, DTP, NCI, 2025).

System: 966289-007-R4-J1-PDC complex spheroid viability
Assay: Anticancer human tumor 966289-007-R4-J1-PDC patient-derived pancreatic adenocarcinoma cell line growth inhibition [RAS]
Conditions: for IC50: curve of first compound; for viability, T/C: stronger effect = lower value
Outline: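 Multi-cell-type spheroids: tumor cells plus HUVEC endothelial cells and mesenchymal stem cells. RAS-pathway inhibitors were combined with targeted agents, each dosed in half-log steps down from clinical Cmax, or from 10 microM when Cmax was unknown.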

[1] = second compound 0.000949 µM, first compound 0.0316 µM
[2] = second compound 0.000949 µM, first compound 0.1 µM
[3] = second compound 0.000949 µM, first compound 0.316 µM
[4] = second compound 0.000949 µM, first compound 1 µM
[5] = second compound 0.000949 µM, first compound 3.16 µM
[6] = second compound 0.000949 µM, first compound 10 µM
[7] = second compound 0.003 µM, first compound 0.0316 µM
[8] = second compound 0.003 µM, first compound 0.1 µM
[9] = second compound 0.003 µM, first compound 0.316 µM
[10] = second compound 0.003 µM, first compound 1 µM
[11] = second compound 0.003 µM, first compound 3.16 µM
[12] = second compound 0.003 µM, first compound 10 µM
[13] = second compound 0.00949 µM, first compound 0.0316 µM
[14] = second compound 0.00949 µM, first compound 0.1 µM
[15] = second compound 0.00949 µM, first compound 0.316 µM
[16] = second compound 0.00949 µM, first compound 1 µM
[17] = second compound 0.00949 µM, first compound 3.16 µM
[18] = second compound 0.00949 µM, first compound 10 µM
[19] = second compound 0.03 µM, first compound 0.0316 µM
[20] = second compound 0.03 µM, first compound 0.1 µM
[21] = second compound 0.03 µM, first compound 0.316 µM
[22] = second compound 0.03 µM, first compound 1 µM
[23] = second compound 0.03 µM, first compound 3.16 µM
[24] = second compound 0.03 µM, first compound 10 µM
[25] = second compound 0.0949 µM, first compound 0.0316 µM
[26] = second compound 0.0949 µM, first compound 0.1 µM
[27] = second compound 0.0949 µM, first compound 0.316 µM
[28] = second compound 0.0949 µM, first compound 1 µM
[29] = second compound 0.0949 µM, first compound 3.16 µM
[30] = second compound 0.0949 µM, first compound 10 µM
[31] = second compound 0.3 µM, first compound 0.0316 µM
[32] = second compound 0.3 µM, first compound 0.1 µM
[33] = second compound 0.3 µM, first compound 0.316 µM
[34] = second compound 0.3 µM, first compound 1 µM
[35] = second compound 0.3 µM, first compound 3.16 µM
[36] = second compound 0.3 µM, first compound 10 µM
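Also: spheroids exposed to agents for one week before readout.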
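For viability, T/C in this document: percent viability relative to DMSO vehicle control wells as 100%.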

CCC(CC)c1cc(NC2CCC(N)C2)n2nccc2n1 (centres undefined) + CCn1c(-c2cccnc2C(C)OC)c2c3cc(ccc31)N1CCOC(CC(NC(=O)C(C(C)C)N(C)C(=O)C3(F)CCN(C(=O)C#CC(C)(C)N(C)C)CC3)C(=O)N3CCCC(N3)C(=O)OCC(C)(C)C2)C1
IC50 (second compound 0.000949 µM): 1500 nM
IC50 (second compound 0.003 µM): 1420 nM
IC50 (second compound 0.00949 µM): 1480 nM
IC50 (second compound 0.03 µM): 1070 nM
IC50 (second compound 0.0949 µM): 764 nM
IC50 (second compound 0.3 µM): 595 nM
viability, T/C [1]: 113%
viability, T/C [2]: 87%
viability, T/C [3]: 115%
viability, T/C [4]: 76.3%
viability, T/C [5]: 1.1%
viability, T/C [6]: 1.22%
viability, T/C [7]: 99.7%
viability, T/C [8]: 82.4%
viability, T/C [9]: 66.7%
viability, T/C [10]: 71.3%
viability, T/C [11]: 1.2%
viability, T/C [12]: 0.93%
viability, T/C [13]: 82.1%
viability, T/C [14]: 122%
viability, T/C [15]: 96.5%
viability, T/C [16]: 75.1%
viability, T/C [17]: 1.25%
viability, T/C [18]: 1.32%
viability, T/C [19]: 66.9%
viability, T/C [20]: 72.1%
viability, T/C [21]: 123%
viability, T/C [22]: 52.9%
viability, T/C [23]: 1.48%
viability, T/C [24]: 1.83%
viability, T/C [25]: 64%
viability, T/C [26]: 106%
viability, T/C [27]: 132%
viability, T/C [28]: 34.6%
viability, T/C [29]: 0.98%
viability, T/C [30]: 0.98%
viability, T/C [31]: 93.5%
viability, T/C [32]: 94.5%
viability, T/C [33]: 98.5%
viability, T/C [34]: 12.7%
viability, T/C [35]: 1.23%
viability, T/C [36]: 1.13%

Cc1nc(N2CCC3(CC2)COC(C)C3N)c(CO)nc1Sc1ccnc(N)c1Cl (centres undefined) + CCn1c(-c2cccnc2C(C)OC)c2c3cc(ccc31)N1CCOC(CC(NC(=O)C(C(C)C)N(C)C(=O)C3(F)CCN(C(=O)C#CC(C)(C)N(C)C)CC3)C(=O)N3CCCC(N3)C(=O)OCC(C)(C)C2)C1
IC50 (second compound 0.000949 µM): > 10000 nM
IC50 (second compound 0.003 µM): > 10000 nM
IC50 (second compound 0.00949 µM): > 10000 nM
IC50 (second compound 0.03 µM): > 10000 nM
IC50 (second compound 0.0949 µM): > 10000 nM
IC50 (second compound 0.3 µM): > 10000 nM
viability, T/C [1]: 123%
viability, T/C [2]: 90.2%
viability, T/C [3]: 119%
viability, T/C [4]: 70.1%
viability, T/C [5]: 67.3%
viability, T/C [6]: 84.8%
viability, T/C [7]: 89.2%
viability, T/C [8]: 89.6%
viability, T/C [9]: 84.7%
viability, T/C [10]: 80.3%
viability, T/C [11]: 86.4%
viability, T/C [12]: 88.9%
viability, T/C [13]: 80.4%
viability, T/C [14]: 83.1%
viability, T/C [15]: 87%
viability, T/C [16]: 90.5%
viability, T/C [17]: 84%
viability, T/C [18]: 82.2%
viability, T/C [19]: 92.4%
viability, T/C [20]: 84.7%
viability, T/C [21]: 89.1%
viability, T/C [22]: 82.6%
viability, T/C [23]: 74.7%
viability, T/C [24]: 97.3%
viability, T/C [25]: 68.9%
viability, T/C [26]: 101%
viability, T/C [27]: 95.9%
viability, T/C [28]: 90.3%
viability, T/C [29]: 106%
viability, T/C [30]: 76.1%
viability, T/C [31]: 95.7%
viability, T/C [32]: 89.2%
viability, T/C [33]: 93.4%
viability, T/C [34]: 144%
viability, T/C [35]: 122%
viability, T/C [36]: 114%
